Among the data in ChEMBL document CHEMBL1150608, “Five new labdane diterpenes from Aster oharai” (2002) are EC50 values, retold here.

Values after ≈ are worked out from the molar mass of the structure shown.

What all share (assay type): functional
Conditions in all cases: read-out: ED50 (the source's name)

The test system of one assay is LOX IMVI. The experiment in a line: Cytotoxicity against human LOXIMVI cells by sulforhodamine B method. (The SRB assay estimates cell density from bound dye.)
A further assay concerns SK-MEL-2. The experiment in a line: Cytotoxicity against human SK-MEL-2 cells by sulforhodamine B method.
The test system of a further assay is SNB-19. The experiment in a line: Cytotoxicity against human SNB19 cells by sulforhodamine B method.
A further assay has as its system U-251. The experiment in a line: Cytotoxicity against human U251 cells by sulforhodamine B method.
Another assay relates to SW-620. The experiment in a line: Cytotoxicity against human SW620 cells by sulforhodamine B method.
A further assay relates to HCT-15. The experiment in a line: Cytotoxicity against human HCT15 cells by sulforhodamine B method.
The subject of the next assay is A549. The experiment in a line: Cytotoxicity against human A549 cells by sulforhodamine B method.
The test system of the next assay is SK-OV-3. The experiment in a line: Cytotoxicity against human SKOV3 cells by sulforhodamine B method.

For the compound `C=C[C@@](C)(CC[C@H]1C(C)=CC[C@H]2C(C)(C)CCC[C@]12C)O[C@@H]1O[C@@H](C)[C@H](OC(C)=O)[C@@H](O)[C@H]1O`, the EC50 in the assay with LOX IMVI, in the assay on SK-MEL-2, in the assay with SNB-19, in the assay on U-251, with SW-620 and in the assay with HCT-15 was > 10 µg/mL each time. Besides, the EC50 in the assay with A549 and with SK-OV-3 was > 10 µg/mL throughout.
With `C=C[C@@](C)(CC[C@H]1C(C)=CC[C@H]2C(C)(C)CCC[C@]12C)O[C@@H]1O[C@@H](C)[C@H](O)[C@@H](OC(C)=O)[C@H]1O`, the EC50 in the assay on LOX IMVI, in the assay with SK-MEL-2, in the assay with SNB-19, in the assay on U-251, in the assay with SW-620 and in the assay with HCT-15 was > 10 µg/mL each time. Moreover, the EC50 in the assay on A549 and in the assay with SK-OV-3 was > 10 µg/mL throughout.
For `C=C[C@@](C)(CC[C@H]1C(C)=CC[C@H]2C(C)(C)CCC[C@]12C)O[C@@H]1O[C@@H](C)[C@H](O)[C@@H](O)[C@H]1OC(C)=O`, the EC50 in the assay with LOX IMVI, with SK-MEL-2, in the assay on SNB-19, with U-251, in the assay with SW-620 and with HCT-15 was > 10 µg/mL throughout. For the same compound, the EC50 with A549 and with SK-OV-3 was > 10 µg/mL each time.
For the compound `C=C[C@@](C)(CCC1=C(C)[C@H](OO)C[C@H]2C(C)(C)CCC[C@]12C)O[C@@H]1O[C@@H](C)[C@@H](OC(C)=O)[C@H](O)[C@H]1O`, the EC50 with LOX IMVI, in the assay on SK-MEL-2, in the assay with SNB-19, in the assay with U-251, with SW-620 and in the assay with HCT-15 was > 10 µg/mL throughout. Besides, the EC50 in the assay on A549 and in the assay with SK-OV-3 was > 10 µg/mL throughout.
Regarding `COc1cccc2c1C(=O)c1c(O)c3c(c(O)c1C2=O)C[C@@](O)(C(=O)CO)C[C@@H]3O[C@H]1C[C@H](N)[C@H](O)[C@H](C)O1` [DOXORUBICIN], the EC50 in the assay on LOX IMVI stood at 0.001 µg/mL (≈ 0.00184 µM); in the assay on SK-MEL-2, 0.002 µg/mL (≈ 0.00368 µM); in the assay with SNB-19 it was 0.002 µg/mL (≈ 0.00368 µM); in the assay with U-251, 0.001 µg/mL (≈ 0.00184 µM); in the assay on SW-620, 0.003 µg/mL (≈ 0.00552 µM); with HCT-15 it was 0.006 µg/mL (≈ 0.011 µM). Also, the EC50 stood at 0.001 µg/mL (≈ 0.00184 µM) with A549 and 0.01 µg/mL (≈ 0.0184 µM) in the assay on SK-OV-3.
